# Laboratory results published in patent US8809052B2, “Methods of generating mature oligodendrocytes” (Yeda Research and Development Co. Ltd., priority 2006, dated 2014).
# Entries after “also recorded” stand apart in the source; their conditions may differ.
# Legend:
# [1] = tested on: human ES cell-derived neuroglial sphere cells; experiment: Count of O4+ cells with oligodendrocyte branching morphology per field after terminal differentiation; type: cell-based
# Method: Differentiation of ES cells into oligodendrocytes—The following steps were taken for initiating ES cell differentiation:
# 1. Step T: Transition step—Collagenase detached huESC colonies pooled from six 6-well plates, into a 15 ml tube supplemented with ES1 medium, were let to sediment by gravity for about 30 minutes in the incubator (37° C.). Colonies were then washed once in ES1 medium and then transferred to 12×6 cm tissue culture plates in 5 ml transition medium (T-medium) consisting of 50% (v/v) ES1 medium, and 50% (v/v) of ITTSPP/B27 medium. Growth factors (GF), recombinant human EGF (20 ng/ml, R&D Systems, Minneapolis, Minn.) and recombinant human bFGF (4 ng/ml, Biotest, Dreieich, Germany) were added to the transition medium. Thereafter (1 d), some cells adhered but the bulk of huESC colonies and aggregates remained in suspension and were transferred to 12 bacterial (non-adherent) plates in the same transition medium and cultured for 1 day. Then, 10 μM retinoic acid (RA, Sigma-Aldrich, St. Lewis, Mo.) was added to the T-medium and cells were cultured for an additional day.
# 2. Step R: Retinoic acid treatment—The medium was switched to ITTSPP/B27 containing 20 ng/ml of EGF and 10 μM RA. Medium was changed every day for 7 days, and colonies were concentrated by gravity, without centrifugation.
# 3. Step S: Suspension culture—During this step, which allows for ripening of neurospheres (NS), the aggregates were cultured in ITTSPP/B27 medium supplemented with 20 ng/ml EGF, for 18 days, changing medium every two days. The ITTSPP/B27 medium was, or was not supplemented with 50 ng/ml Noggin-Fc chimera (R&D systems, Minneapolis, Minn.), in order to examine the effect of noggin.
# 4. Steps M1,2: Adherence to matrigel-coated plates—Spheres or aggregates from one original 6-well plate were distributed to another 6-well plate which had been coated for 1.5 hours at room temperature with matrigel (Matrigel low growth factor concentration; BD Biosciences, Clontech, Palo Alto, Calif., diluted 1:30 in DMEM/F12 Pen-Strep). After one day, the unbound aggregates were discarded and fresh ITTSPP/B27 medium, supplemented with 20 ng/ml EGF, was added. Medium was changed every 3-4 days.
# 5. Passage with trypsin—Following 1-2 weeks, aggregates were detached and partially dissociated by a short treatment with trypsin 0.05% (2-3 min, 37° C.; Biological industries, Beit Haemek, Israel, diluted in PBS, —Ca and —Mg). Trypsin was rapidly neutralized by addition of 4 volumes of BSA (2 mg/ml; Sigma for Tissue culture) in ITTSPP/B27, and centrifugation at (200 rpm, 10 min), followed by another wash with BSA. This treatment dissociates the aggregates to small clusters that are seeded again onto matrigel-coated plates (at dilution 1:3), in ITTSPP/B27, 20 ng/ml EGF, for another 1-2 weeks (step M2).
# (§1) 6. Steps F1,2: Terminal differentiation on matrigel—In step F1 (3 days), the medium was changed to ITTSPP/B27 containing EGF 5 ng/ml and bFGF 5 ng/ml, together with mouse laminin 1 μg/ml, and Vit C (50 μg/ml; Sigma-Aldrich, St. Lewis, Mo.). Some of the wells were treated with noggin (50 ng/ml Noggin-Fc chimera; R&D systems, Minneapolis, Minn.), 2 days after seeding, and noggin was continued thereafter. In step F2, cells were cultured 6 or 10 days in the same medium without growth factor, but with or without noggin. The medium was changed every two to four days.
# Immunostaining—Cells were fixed in 12 or 24-well tissue culture plastic plates with 4% paraformaldehyde (PFA), washed with PBS, and kept at 4° C. before staining. Non-specific staining was blocked with normal goat serum (5% w/v in PBS) for 30 min at RT. Thereafter primary mouse monoclonal (mMc) antibodies, diluted in 1% goat serum, were administered. Antibodies used were: anti PDGFR (mMc IgG1, Santa Cruz, 1:500), O4 (mMc IgM, R&D Systems, 1:1000), O1 (mMc IgM, received from Dr Sheila Harroch, Pasteur Institute, Paris), anti tubulin-βIII (mMc IgG1, Cowance, 1:1000), and antibody 1281 (human nuclei antigen HNA, Chemicon). […]
# [2] = tested on: human ES cell-derived oligodendrocytes; experiment: Number of MBP+ oligodendrocytes by immunostaining; type: cell-based; details: step F2, 10 days without GF, noggin vs without noggin; FIG. 2g
# Method: as §1
# Immunostaining—Cells were fixed in 12 or 24-well tissue culture plastic plates with 4% paraformaldehyde (PFA), washed with PBS, and kept at 4° C. before staining. Non-specific staining was blocked with normal goat serum (5% w/v in PBS) for 30 min at RT. Thereafter primary mouse monoclonal (mMc) antibodies, diluted in 1% goat serum, were administered. […] An Olympus IX-70 FLA microscope with a DVC-1310C digital camera (DVC, Austin, Tex.) was used and images were processed with Photoshop and analyzed with Image-ProPlus software (Media Cybernetics, Silver Spring, Md.), in order to measure Integrated Optic Density (IOD) of color-specific pixels and MBP fiber length. […]
# [3] = tested on: shiverer brain slices; experiment: Ex vivo transplantation of human ES-NSc on shiverer brain slices (organotypic cultures), MBP staining and electron microscopy; type: cell-based, mouse
# Method: Immunostaining—Cells were fixed in 12 or 24-well tissue culture plastic plates with 4% paraformaldehyde (PFA), washed with PBS, and kept at 4° C. before staining. Non-specific staining was blocked with normal goat serum (5% w/v in PBS) for 30 min at RT. Thereafter primary mouse monoclonal (mMc) antibodies, diluted in 1% goat serum, were administered. Antibodies used were: anti PDGFR (mMc IgG1, Santa Cruz, 1:500), O4 (mMc IgM, R&D Systems, 1:1000), O1 (mMc IgM, received from Dr Sheila Harroch, Pasteur Institute, Paris), anti tubulin-βIII (mMc IgG1, Cowance, 1:1000), and antibody 1281 (human nuclei antigen HNA, Chemicon). Following overnight exposure to the appropriate antibody (4° C.), biotinylated goat anti-mouse IgG1 (Southern Biotech, 1:50) was added for 30 minutes, followed by Cy3-tagged streptavidine (ABC laboratories, 1:2000). […] Staining for MBP was with rat monoclonal anti MBP (ab7349, AbCam, 1/500), and Cy3-conjugated Affipure goat anti rat IgG (Jackson laboratories, 1:500). […] An Olympus IX-70 FLA microscope with a DVC-1310C digital camera (DVC, Austin, Tex.) was used and images were processed with Photoshop and analyzed with Image-ProPlus software (Media Cybernetics, Silver Spring, Md.), in order to measure Integrated Optic Density (IOD) of color-specific pixels and MBP fiber length. […]
# [4] = tested on: human ES cells; experiment: RT-PCR gene expression at the different culture steps; type: cell-based
# Method: RT-PCR—total RNA was isolated from cultures at different culture steps using Tri-Reagent (Molecular Research Center, Cincinnati, Ohio) and RT-PCR was carried out by standard technology as previously described (Slutsky et al., 2003). Expression was checked for the following genes, as described in table 2 below, including the expression of the control gene G3PDH. Also provided in the table are primer sequences used for each gene. For G3PDH, primers from Clontech (Palo Alto, Calif., catalog #9805-1) were used.
# [5] = tested on: Shiverer mice; experiment: Transplantation of huES-NSc into brain of shiverer mice, MBP-stained fibers; type: in vivo, mouse; details: FIG. 4e
# Text: Animal model—Shiverer mice have an extensive deletion in the MBP gene (Roach et al., 1985) and in a homozygous shi−/− animal there is no MBP immunoreactivity in the CNS. The appearance of fibers showing immunostaining for MBP following transplantation of oligodendrocyte precursors therefore indicates, that the transplanted cells have the capacity to myelinate endogenous neurons (Lachapelle et al., 1983).
# Transplantation of huES-NSc in Shiverer mice—For transplantation, ES cell-derived dissociated neuroglial sphere cells (huEs-NSc) were prepared as described in Example 3. The culture steps from step T to step D3 that were followed, are outlined in Table 1 condition 3. in Example 1. However, Step D3 was for 9 days, with and without 50 ng/ml noggin. Growth factors were then removed for one day, during which 1 μg/ml laminin, and 50 μg/m Vit C were added to the N2/B27 medium (step F2, as described in Example 1). The culture was thereafter subjected to the short trypsin treatment (see Example 1) and the cells were injected intraventricularly to homozygous shiverer mice. One day old shi/shi pups were anesthetized by brief hypothermia and received an injection of 10^5 cells in 2 μl, over a period of 3 minutes, into the brain third ventricule, using a Hamilton 10 μl syringe. The pups were then warmed and returned to their mothers. […]
# [6] = Dissociated cells, Passage 2, listed as noggin
# [7] = On Matrigel, noggin added at Step S
# [8] = On Matrigel, noggin added at Steps F and S
substance,measurement,setting,value
Noggin,oligodendrocytes formed in the differentiation step,"[1]; Dissociated cells, passage 2, noggin added at the early step S",1.77±1.2
same,"Fold (with vs without noggin), number of oligodendrocytes per field","[1]; Dissociated cells, Passage 2",9.1
same,Number of oligodendrocytes per field,"[1]; Dissociated cells, Passage 2",5.20 ± 1.7
same,O4+ cells with ramified oligodendrocyte shape as share of total cells,"[1]; Dissociated cells, Passage 2",about 5%
same,total O4+ cells as share of total cells,"[1]; Dissociated cells, Passage 2",about 15%
same,"Fold (with vs without noggin), number of oligodendrocytes per field",[1]; [6],9
same,Number of oligodendrocytes per field,[1]; [6],5.20±1.7
same,"Fold (with vs without noggin), number of oligodendrocytes per field","[1]; Dissociated cells, Passage 3",7.1
same,Number of oligodendrocytes per field,"[1]; Dissociated cells, Passage 3",10.14 ± 5.2
same,"Fold (with vs without noggin), number of oligodendrocytes per field","[1]; Dissociated cells, Passage 4",6.0
same,Number of oligodendrocytes per field,"[1]; Dissociated cells, Passage 4",12.05 ± 3.6
same,Number of oligodendrocytes per field,"[1]; On Matrigel, noggin 50 ng/ml added at Step F, 6 days without growth factors, fields of 0.4 mm^2",5.76 ± 4.2
same,"Fold (with vs without noggin), number of oligodendrocytes per field","[1]; On Matrigel, noggin added at Step F",8.7
same,"Fold (with vs without noggin), number of oligodendrocytes per field",[1]; [7],2.2
same,Number of oligodendrocytes per field,[1]; [7],1.50 ± 1.4
same,"Fold (with vs without noggin), number of oligodendrocytes per field",[1]; [8],4.4
same,Number of oligodendrocytes per field,[1]; [8],2.95 ± 1.7
same,proportion of oligodendrocytes of the total cells in the culture,"[1]; after sub-passages (passages 3 and 4), noggin during steps D and F",43%
same,number of well-developed oligodendrocytes displaying ramified branches,"[1]; on matrigel, 10 days without growth factors, FIGS. 1g-h",strong effect
same,number of MBP+ oligodendrocytes,[2],very significant stimulation; also recorded: strong stimulation
same,myelin by electron microscopy,"[3]; brain tissue transplanted with noggin-treated huES-NS cells, FIG. 5e,f","compacted myelin sheaths, with major dense lines, were formed"
same,overall myelinating capacity (extent of MBP staining and mean length of MBP+ fibers),"[3]; noggin-treated vs untreated huES-NS cells, two weeks after implantation, FIG. 5g",markedly enhanced
same,expression of Oct4 and Rex1,[4]; after step S with noggin,down-regulated
same,expression of myelin proteolipid protein (PLP),[4]; after step S with noggin,increasing
same,expression of PDGF-Rα,"[4]; after step S with noggin, FIG. 1a lane 3",decreased
same,expression of Nkx2.2 and Sox10,"[4]; after step S, noggin 50 ng/ml, FIG. 1a lane 3",seen only when noggin was added
same,number of MBP fibers/field,[5]; cells cultured with vs without noggin,increased
same,increase in the number of MBP fibers,"[5]; huES-NSc treated 9 days with 50 ng/ml noggin at step D3, injected into third ventricule, four weeks",3.5-4 fold
bFGF: recombinant human basic fibroblast growth factor,effect of addition at step S (ripening of neurospheres),[1]; bFGF 20 ng/ml at step S,not found to be helpful
same,oligodendrocytes formed in the final differentiation step F,"[1]; bFGF alternating with EGF during step S (without noggin), step F with noggin",0.66±0.5
same,expansion of dissociated precursor cells,[1]; combination of bFGF and EGF at step D2,better than EGF alone
same,induction of Nkx2.2,"[4]; protocol based on bFGF treatment with neither RA nor noggin, FIG. 1b",failed to induce Nkx2.2
